How the values were obtained:
apolipoprotein B mRNA [1] = test: ApoE knockout mice (Example 28): target mRNA levels in liver; type: in vivo, mouse; conditions: high fat diet, six weeks
Source text: Female ApoE knockout mice ranged in age from 5 to 7 weeks and were placed on a normal diet for 2 weeks before study initiation. ApoE knockout mice were then fed ad libitum a 60% fat diet, with 0.15% added cholesterol to induce dyslipidemia and obesity. Control animals were maintained on a high-fat diet with no added cholesterol. […]
At study termination and forty eight hours after the final injections, animals were sacrificed and evaluated for target mRNA levels in liver by RT-PCR methods verified by Northern Blot analysis, glucose levels, cholesterol and lipid levels by HPLC separation methods and triglyceride and liver enzyme levels (performed by LabCorp Preclinical Services; San Diego, Calif.).
Data are normalized to saline controls.

[2] = system: mouse apolipoprotein B mRNA; test: High fat fed mice (Example 65): mouse apolipoprotein B mRNA and serum cholesterol levels; type: in vivo
Experimental: Male C57Bl/6 mice were divided into the following groups, consisting of 5 animals each: (1) mice on a lean diet, injected with saline (lean control); (2) mice on a high fat diet; (3) mice on a high fat diet injected with 50 mg/kg of the control oligonucleotide 141923 (SEQ ID NO: 858); (4) mice on a high fat diet given 20 mg/kg atorvastatin calcium (Lipitor®, Pfizer Inc.); (5) mice on a high fat diet injected with 10, 25 or 50 mg/kg ISIS 147764 (SEQ ID NO: 109). Saline and oligonucleotide treatments were administered intraperitoneally twice weekly for 6 weeks. Atorvastatin was administered daily for 6 weeks. At study termination, liver samples were isolated from each animal and RNA was isolated for Northern blot qualitative assessment, DNA microarray and quantitative real-time PCR. Northern blot assessment and quantitative real-time PCR were performed as described by other examples herein.
Mouse apolipoprotein B mRNA and serum cholesterol levels, measured as described herein, were evaluated to confirm antisense inhibition by ISIS 147764 and ISIS 147483. […] The 50 mg/kg dose of ISIS 147483 increased ALT and AST levels.

apolipoprotein B mRNA [3] = test: Long-term study in lean Cynomolgous monkeys (Example 64): apolipoprotein B mRNA in liver; type: in vivo, Cynomolgous monkey; conditions: for apolipoprotein B expression % change normalized to saline: liver, one month
Experimental: Male and female Cynomologous monkeys are treated with 2, 4 or 12 mg/kg of ISIS 301012 intravenously or 2 or 20 mg/kg subcutaneously at a frequency of every two days for the first week, and every 4 days thereafter, for 1 and 3 month treatment periods. Saline-treated animals serve as controls. Each treatment group includes 2 to 3 animals of each sex.
At a one month interval and at the 3 month study termination, the animals are sacrificed and evaluated for target expression in liver, lipid levels in serum and indicators of toxicity. Liver samples are procured, RNA is isolated and apolipoprotein B mRNA expression is measured by real-time PCR as described in other examples herein. Serum lipids, including total cholesterol, LDL-cholesterol, HDL-cholesterol and triglycerides, are evaluated by routine clinical analysis using an Olympus Clinical Analyzer (Olympus America Inc., Melville, N.Y.). Ratios of LDL-cholesterol to HDL-cholesterol and total cholesterol to HDL-cholesterol are also calculated. Analyses of serum ALT and AST, inflammatory infiltrates in tissue and basophilic granules in tissue provide an assessment of toxicities related to the treatment. Hepatic steatosis, or accumulation of lipids in the liver, is assessed by routine histological analysis with oil red 0 stain and measurement of liver tissue triglycerides using a Triglyceride GPO Assay (Sigma-Aldrich, St. Louis, Mo.).
The results from the one month interval of the long term treatment are shown in Table 50 and are normalized to saline-treated animals for mRNA and to untreated baseline values for lipid levels. Total cholesterol, LDL-cholesterol, HDL-cholesterol, LDL particle concentration and triglyceride levels in serum were measured by nuclear magnetic resonance spectroscopy by Liposcience (Raleigh, N.C.). Additionally, the concentration of intact oligonucleotide in liver was measured by capillary gel electrophoresis and is presented as micrograms of oligonucleotide per gram of liver tissue. Each result represents the average of data from 4 animals (2 males and 2 females).
In a similar experiment, male and female Cynomolgous monkeys received an intravenous dose of ISIS 301012 at 4 mg/kg, every two days for the first week and every 4 days thereafter. Groups of animals were sacrificed after the first dose and the fourth dose, as well as 11, 15 and 23 days following the fourth and final dose. Liver RNA was isolated and apolipoprotein B mRNA levels were evaluated by real-time PCR as described herein. […] Furthermore, after 4 doses of ISIS 301012 at 4 mg/kg, target mRNA was reduced by approximately 85% and a 50% reduction in target mRNA was sustained for up to 16 days following the cessation of antisense oligonucleotide treatment.

[4] = system: mouse apolipoprotein B mRNA; test: Long-term study in lean CD-1 mice (Example 63): apolipoprotein B mRNA in liver; type: in vivo; conditions: after one month of treatment
Experimental: In accordance with the present invention, the toxicity of ISIS 301012 (SEQ ID NO: 247) is investigated in a long-term, 3 month study in mice. Two-month old male and female CD-1 mice (Charles River Laboratories, Wilmington, Mass.) are dosed with 2, 5, 12.5, 25 or 50 mg/kg of ISIS 301012 twice per week for first week, and every 4 days thereafter. The mice are maintained on a standard rodent diet. Saline and control oligonucleotide animals serve as controls and are injected on the same schedule. Each treatment group contains 6 to 10 mice of each sex, and each treatment group is duplicated, one group for a 1 month study termination, the other for a 3 month study termination. After the 1 or 3 month treatment periods, the mice are sacrificed and evaluated for target expression in liver, lipid levels in serum and indicators of toxicity. Liver samples are procured, RNA is isolated and apolipoprotein B mRNA expression is measured by real-time PCR as described in other examples herein. Serum lipids, including total cholesterol, LDL-cholesterol, HDL-cholesterol and triglycerides, are evaluated by routine clinical analysis using an Olympus Clinical Analyzer (Olympus America Inc., Melville, N.Y.). Ratios of LDL-cholesterol to HDL-cholesterol and total cholesterol to HDL-cholesterol are also calculated. […]

Substance	mRNA Percent Inhibition (apolipoprotein B mRNA [1]; 5 mg/kg i.p. every three days) [%]	mRNA Percent Inhibition (apolipoprotein B mRNA [1]; 25 mg/kg i.p. every three days) [%]	mRNA Percent Inhibition (apolipoprotein B mRNA [1]; 50 mg/kg i.p. every three days) [%]	mouse apolipoprotein B mRNA and serum cholesterol levels [2]	reduction in target mRNA in liver (apolipoprotein B mRNA [3]; Cynomolgous monkeys, after 4 doses at 4 mg/kg i.v.)	reduction in apolipoprotein B mRNA expression in liver (apolipoprotein B mRNA [3]; Cynomolgous monkeys, single intravenous dose of 4 mg/kg) [%]	reduction in target mRNA in liver sustained after cessation (apolipoprotein B mRNA [3]; Cynomolgous monkeys, up to 16 days following cessation of treatment (4 doses, 4 mg/kg)) [%]	apolipoprotein B expression (apolipoprotein B mRNA [3]; lean Cynomolgous monkeys, one month interval)	apolipoprotein B expression % change normalized to saline (apolipoprotein B mRNA [3]; lean Cynomolgous monkeys, intravenous 2 mg/kg) [%]	apolipoprotein B expression % change normalized to saline (apolipoprotein B mRNA [3]; lean Cynomolgous monkeys, intravenous 4 mg/kg) [%]	apolipoprotein B expression % change normalized to saline (apolipoprotein B mRNA [3]; lean Cynomolgous monkeys, intravenous 12 mg/kg) [%]	apolipoprotein B expression % change normalized to saline (apolipoprotein B mRNA [3]; lean Cynomolgous monkeys, subcutaneous 20 mg/kg) [%]	reduction of mouse apolipoprotein B mRNA levels in liver [4] [%]
GTCCCTGAAGATGTCAATGC (2'-MOE gapmer, further chemistry not given here) [ISIS 147764]	2	42	70	lowered in a dose-dependent manner									
ISIS 301012: SEQ ID NO: 247, antisense oligonucleotide targeted to human apolipoprotein B (antisense GCCTCAGTCTGCTTCGCACC; chemistry not given here)					approximately 85%	40	50	inhibits apolipoprotein B expression in a dose-dependent manner	−45	−76	−96	−94	53

From patent US7803930B2, “Antisense modulation of apolipoprotein B-expression” (Isis Pharmaceuticals, Inc., priority 2002, dated 2010)
